Laboratory results taken from patent US10799521B2, “Use of icaritin in preparing medicament for preventing or treating hematocytopenia” (Lunan Pharmaceutical Group Corporation, priority 2013, dated 2020).
Marks after values point to notes of the source that are not given here.

How the values were obtained:
NOD/Ltj mice = assay: Effect on the white blood cells and platelets in NOD mice; format: in vivo; settings: 15 days
Description: Non-obese diabetic (NOD) mice are a large mouse strains, including NOD/Scid, NOD/Ltj mice, etc. The NOD/Ltj mice used in this experiment are mice with an abnormal immune system in which platelets and white blood cells are obviously lower than those in normal mice.
5-Week-old healthy NOD mice, after adaptive feeding for one week, were randomly divided into 4 groups:
Group I was the blank control group, totally 13 mice; and was administered intragastrically with normal saline in the same volume of interleukin daily;
Group II was the positive control group, totally 13 mice, and was administered intragastrically with 10.0 mg/kg of interleukin daily;
Group III was the low-dose icaritin group, totally 13 mice, and was administered intragastrically with 30 mg/kg of icaritin daily;
Group IV was the high-dose icaritin group, totally 13 mice, and was administered intragastrically with 60 mg/kg of icaritin daily.
Each group was administered once a day for consecutively 15 days. The mice were anaesthetized (with 3% pentobarbital sodium, by intraperitoneal injection, at 0.1-0.15 ml per animal). 1 ml of blood wass sampled from abdominal aorta into an anticoagulation tube for routine blood test.

[1] = tested on: active immune thrombocytopenia mice; assay: Active immune thrombocytopenia in mice (platelets in peripheral blood); format: in vivo, Balb/C mice; settings: x ± s
Description: 72 Balb/C mice were selected, weighed, and randomly divided into […] administration groups, i.e. the normal group, the model control group, the icariin group (positive control group), and the icaritin administration groups (high-, medium-, and low-dose groups), with 12 mice in each group. […] On the second day after the model was established, each group was administered with the following therapeutic agents: The normal group: administered intragastrically with the same volume of normal saline; The model control group: administered intragastrically with the same volume of normal saline; The […]: […]; The high-dose icaritin group: […] Example 9; The medium-dose icaritin group: […] Example 9; The low-dose icaritin group: […] Each of the administration groups was administered once a day and fed normally. After establishing the model three times, each administration group was continued to be administered for one week. The mice were anesthetized, and blood was sampled to measure the number of platelets and determine the effect of icaritin on the number of platelets (PLT) in the peripheral blood.

chronic ITP model rats = assay: Thrombin time, prothrombin time and partial thromboplastin time in chronic ITP model rats; format: in vivo, Wistar rats; settings: high- and medium-dose groups, P<0.05
Description: Establishment of chronic ITP model: Wistar rats were selected to establish the model by injecting rabbit anti-rat platelet serum (APS). […] 50 Rats in which the model was successfully established were selected, weighed, and randomly divided into 5 groups, i.e. the model control group, the icariin group (positive control group), and the icaritin administration groups (high-, medium- and low-dose groups), with 10 rats in each group. The groups were administered with the following therapeutic agents, respectively.

[2] = design: species or system Kunming mice; settings: mouse, in vivo
Description: Mice ascites tumor s180 cells were conventionally incubated in 1640 culture medium, at 37° C., 5% CO2, and passaged once every two days in average. The cells in the logarithmic growth phase were prepared into a single-cell suspension having a density of 3.0×10^7 cells/ml with normal saline, which was injected into the abdominal cavities of mice under sterile conditions. Seven days after inoculation, significant swelling of the abdominal cavities of mice can be seen. As this time, the mice were executed by cervical vertebra luxation, put into a beaker containing 75% ethanol and soaked for 2-3 minutes. The sterilized mice were placed into an ultraclean bench, and the abdomens were exposed. The ascites was drawn with a sterile syringe and put into a sterile reagent bottle for further use. The above ascites was counted with trypan blue, diluted with normal saline to adjust to 2.0×10^7 cells/ml, and inoculated at the right armpit of the mice with 0.2 ml for each mouse.
The inoculated mice were randomly divided into 6 groups, with 10 animals in each group and half male and half female.
Docetaxel and icaritin were administered by tail intravenous injection with an administration volume of 10 ml/kg for each. Tegafur, Gimeracil and Oteracil Potassium Capsules was intragastrically administered with an administration volume of 40 ml/kg. Each group was administered once a day for totally 10 days. During the test, the animals were observed every day for their food and water uptake, survival conditions and behaviors, and measured for their body weights every day. After the test was ended, the mice were anaesthetized and anatomized. Blood was collected from abdominal aorta for routine blood test, and the total number of white blood cells, the total number of platelets and the total number of neutrophils were determined.

normal mice = assay: Bleeding time in normal mice (tail tip cut); format: in vivo, Kunming mice; design: unit not given here; settings: 3 days, 1 h after last administration
Description: 100 Kunming mice were randomly divided into 5 groups, i.e. the blank control group (normal saline group), the icariin group (positive control group), the high-dose icaritin group, the medium-dose icaritin group, and the low-dose icaritin group. Each group was administered as follows. Blank control group: administered with the same volume of normal saline by subcutaneous injection; Icariin group: administered with 2 mg/kg of icariin by injection; High-dose icaritin group: administered with the injection of icaritin of Example 1 by subcutaneous injection at a dosage of 10 mg/kg; Medium-dose icaritin group: administered with the injection of icaritin of Example 1 by subcutaneous injection at a dosage of 5 mg/kg; Low-dose icaritin group: administered with the injection of icaritin of Example 1 by subcutaneous injection at a dosage of 1 mg/kg. Measurement of the bleeding time: The normal saline group (blank control group), the icariin group (positive control group), and the icaritin administration groups (high-, medium-, and low-dose groups) were designed as follows: 50 mice were selected, weighed, and randomly divided into 5 groups, with 10 mice in each group. The animals were administered consecutively for 3 days. At 1 h after the last administration, a filter paper was rolled to form a filter paper cartridge with a diameter similar to that of the mouse body, which was closed at one end. The mouse was allowed to climb into the cartridge. Then about 3 mm of tail tip of the mouse was cut with scissors. A stopwatch was started to record the time when the bleeding started. The tail tip of the mouse was point-contacted with a filter paper gently every 15 s until there was no blood or no blood can be seen.

[3] = high dose 60 mg/kg intragastrically daily
[4] = low dose 30 mg/kg intragastrically daily

SMILES: COc1ccc(-c2oc3c(CC=C(C)C)c(O)cc(O)c3c(=O)c2O)cc1 [Icaritin]
- Platelets (NOD/Ltj mice; [3]): 780.2 ± 46.5 ^##$$ 10^9/L
- White blood cells (NOD/Ltj mice; [3]): 4.225 ± 0.51^##$ 10^9/L
- Platelets (NOD/Ltj mice; [4]): 730.5 ± 34.6^##$ 10^9/L
- White blood cells (NOD/Ltj mice; [4]): 3.242 ± 0.45 ^#$ 10^9/L
- PLT ([1]; high dose 100 mg/kg intragastric (tablets of Example 9)): 1193.4 ± 95.4 10^9/L
- PLT ([1]; low dose 10 mg/kg intragastric (tablets of Example 9)): 862.7 ± 75.6 10^9/L
- PLT ([1]; medium dose 50 mg/kg intragastric (tablets of Example 9)): 983.5 ± 85.7 10^9/L
- partial thromboplastin time (APTT) (chronic ITP model rats): significantly shorten
- prothrombin time (PT) (chronic ITP model rats): significantly shorten
- thrombin time (TT) (chronic ITP model rats): significantly shorten
- Body weight Before Administration [2]: 21.1 ± 3.0 g
- Bleeding Time (normal mice; high dose 10 mg/kg sc): 1.86 ± 0.24**^ΔΔ
- Bleeding Time (normal mice; low dose 1 mg/kg sc): 3.75 ± 0.46
- Bleeding Time (normal mice; medium dose 5 mg/kg sc): 2.51 ± 0.35**^Δ
